Where a name gives a salt, the structure may show the parent alone. The source made the active and inactive calls. The calls are words filed in the database; no cut-off is given here.
Target: Matrix metalloproteinase-14 (Homo sapiens, UniProt P50281)
Assay: Inhibition of truncated recombinant MT1-MMP expressed in Escherichia coli JM109 after 1 hr by fluorescence assay

IC50 [µM] | Activity | Structure (SMILES)
31.2 |  | CCCCCC/C=C\CCCCCCCCCCCCC#C[C@@H](OS(=O)(=O)O)C(=O)O [CALLYSPONGINOL SULFATE A]
 | inactive | CCCCCC/C=C\CCCCCCCCCCCCC#C[C@@H](O)C(=O)O
25.2 |  | CC(CC[C@@H](C)[C@H]1CC[C@H]2[C@@H]3C[C@H](OS(=O)(=O)O)[C@H]4C[C@H](OS(=O)(=O)O)[C@@H](OS(=O)(=O)O)C[C@]4(C)[C@H]3CC[C@]12C)C(C)(C)C (stereo partly drawn) [HALISTANOL SULFATE]
